How the values were obtained:
VCAM-1 = experiment: HASMC expression of VCAM-1; format: cell-based, human
A10 SMC = experiment: Cell cycle distribution by flow cytometry, A10 cells; format: cell-based, rat; settings: 120 μM, 48 h
Experimental: At 50% confluence (exponentially growing phase), A10 cells were seeded into 100 mm culture dishes and were treated with different concentrations of Avn for 48 h. Cells were then harvested by trypsin/EDTA treatment, washed with PBS and fixed with 70% ethanol at 4° C. for 1 hr. Prior to analysis, cells were washed again with PBS and stained with 1.0 mL of propidium iodide (PI) solution containing 25 μg/mL PI and 10 μg/mL RNase in PBS at 4° C. for 30 min in the dark. Cell cycle distributions were then analyzed by flow cytometry using the fluorescence-activated cell sorting (FACS) analysis. To calculate percentage of cells in respective phases of the cell cycle the DNA content frequency histograms were deconvoluted. Based on the DNA content, the cell cycle can be distinguished from G1 to S and G2-M phase.

cyclin D1 = experiment: Cyclin D1 expression Western blot, FBS-stimulated A10 cells; format: cell-based, rat; settings: 10% FBS, 20 h, dose-dependent
Experimental: (§1) Protein from 5×10^4 cells was subjected to electrophoresis on 7.5-10% SDS-polyacrylamide gels and electro-transferred to nirocellulose membrane. Nonspecific binding was blocked by incubating with Tris-buffered saline (TBS) [137 mM NaCl, and 15 mM Tris-HCl (pH 7.6)] containing 5% non-fat milk (w/v) for 1 h at room temperature and then probed with primary antibody against p53, p21, p27, cyclin D1 and pRb overnight. After washing in TBS-Tween 20 buffer (0.075% v/v), the membranes were incubated with horseradish peroxidase-conjugated anti-IgG antibody. Proteins bound to the primary antibodies were detected with ECL detection reagents.
Cells were treated with 10% FBS in the presence and absence of substantially purified Avn-C as described above. 20 h after the addition of serum to quiescent A10 cells, the amount of cyclin D1 was measured by Western blotting using polyclonal anti-cyclin D1 antibody. β-Actin expression level was used as a loading control.

p53 [1] = experiment: p53 protein level Western blot, A10 cells; format: cell-based, rat
Experimental: as §1
Induction of the tumor suppressor p53 has been implicated in the control of cell growth of SMC, and some antioxidants in green tea or red wine can increase the p53 protein expression level. Therefore, the effect of substantially purified Avn-C treatment on p53 protein levels was explored. A10 cells were seeded into 100 mm Petri dishes and grown in 10% FBS culture medium until 70% confluence. Cells were either left untreated or treated with different concentrations of Avn (0-120 uM), and the cells were harvested after 24 h. Whole cell lysates were prepared and subjected to Western blot analysis for p53 and β-actin levels.

p53 [2] = experiment: Half life of p53 protein, cycloheximide chase, A10 cells; format: cell-based, rat
Experimental: At 80% confluence, A10 cells seeded into 100 mm culture dishes and were treated with different concentrations of Av (0, 40, 80 and 120 μM) for 24 h. Following Avn treatment, the total cell extracts were harvested with 2× protein sample buffer [0.14 M Tris/HCl (pH 6.8), 22.4% glycerol, 6% SDS, 0.02% […], and 10% β-mercaptoethanol] by scraping the cells. The genomic DNA is sheared by passing through a 21-gauge syringe several times. The homogenized cell lysates were boiled for 5 min and centriftiged at 12,000 rpm for 5 min. Protein half life studies are performed as described before. Briefly, cells were treated with Avn for 4-6 h. […] Cells were harvested in 2× protein sample buffer at 0, 30, 60 and 120 min after cycloheximide addition. Protein samples were analyzed by Western blot.
P53 protein level is mainly regulated at a posttranslational level, usually via control of protein stability. To determine whether increased protein stability might play a role in the increased p53 levels induced by Avn treatment observed in this study, the change in half life of p53 protein in Avn-treated and nontreated cells was explored. […] Whole cell extract was prepared at different time points (0, 30 and 60 min.) and p53 protein levels were measured by Western blot. […]

U937 cells = experiment: Hydrogen peroxide-induced ROS production in U937 cells (DCHF); format: cell-based, human; settings: 18 h pretreatment
Experimental: Pretreatment of H2O2-stimulated U937 cells with 1, 5, and 10 μM of Avn reduced the ROS production by 22, 50, and 76%, respectively, indicating the inhibitory effect is dose-dependent.

## O=C(/C=C/c1ccc(O)c(O)c1)Nc1ccc(O)cc1C(=O)O [Avn-C, Avenanthramide C]
VCAM-1
  HASMC expression of VCAM-1: not affected
A10 SMC; growing cells (control 49.7%)
  population of cells in G0/G1-phase: 66.9%
A10 SMC; growing cells (control about 40%)
  population of cells in S-phase: 25.7%
Cyclin D1
  FBS-induced cyclin D expression: attenuate
p53 [1]
  increase of p53 protein level: up to 3 fold
p53 [1]; 0-120 uM, 24 h
  p53 protein levels: dose-dependent increase
p53 [2]; 80 uM for 6 h, then 15 μg/mL cycloheximide
  p53 protein remaining after 1 h of cycloheximide treatment: More than half
p53 [2]; A10 cells (untreated about 20 min)
  half-life of p53: more than 1 h
U937 cells; 1 μM
  reduction of H2O2-induced ROS production: 22%
U937 cells; 5 μM
  reduction of H2O2-induced ROS production: 50%
U937 cells; 10 μM
  reduction of H2O2-induced ROS production: 76%
